Where “and” joins values, the source holds several entries; their conditions need not be identical. Equal values may be shown once.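 In this assay, cells in 96-well plates receive the compound at five concentrations for 48 hours. Endpoints are linearly interpolated between the surrounding concentrations. Abbreviation: GI50, concentration required for 50% inhibition of growth. TGI is the concentration that stops growth completely.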
Experiments:
Assay in all cases: growth of human tumour cells (NCI), 48 h
SNB-78 CNS = tested on: SNB-78 CNS
UACC-62 melanoma = tested on: UACC-62 melanoma
UO-31 renal = tested on: UO-31 renal
SNB-75 CNS = tested on: SNB-75 CNS
HL-60(TB) leukemia = tested on: HL-60(TB) leukemia
KM20L2 colon = tested on: KM20L2 colon
LOX IMVI melanoma = tested on: LOX IMVI melanoma
MDA-MB-231 breast = tested on: MDA-MB-231 breast
BT-549 breast = tested on: BT-549 breast
MCF7 breast = tested on: MCF7 breast

SMILES | TGI (SNB-78 CNS) [µM] | TGI (UACC-62 melanoma) | TGI (UO-31 renal) | TGI (SNB-75 CNS) | TGI (HL-60(TB) leukemia) | TGI (KM20L2 colon) [µM] | TGI (LOX IMVI melanoma) | GI50 (MDA-MB-231 breast) [µM] | TGI (MDA-MB-231 breast) [µM] | GI50 (UACC-62 melanoma) [µM] | GI50 (UO-31 renal) [µM] | GI50 (SNB-75 CNS) [µM] | GI50 (BT-549 breast) [µM] | TGI (BT-549 breast) [µM] | GI50 (MCF7 breast) | TGI (MCF7 breast) | GI50 (SNB-78 CNS) [µM] | GI50 (HL-60(TB) leukemia) [µM] | GI50 (LOX IMVI melanoma) [µM] | GI50 (KM20L2 colon) [µM]
CCCC(=O)N[C@H]1C2C3CC4C5CC(C42)C1(C)C53 (some centres not stated) | > 100 | > 100 µM | > 100 µM | > 100 µM | > 100 µM | > 100 | > 100 µM |  |  |  |  |  |  |  |  |  |  |  |  | 
CC(C)=CCC(OC(=O)C=C(C)C)C1=CC(=O)c2c(O)ccc(O)c2C1=O (configuration not stated) | 5.88 | 3.1 µM and 2.4 µM | 5.49 µM and 7.74 µM | 16.3 µM and 13.7 µM | 1.09 µM and 0.79 µM | 5.64 | 0.894 µM and 3.07 µM | 1.63 | 3.89 | 1.67 | 0.993 | 3.87 | 0.59 | 1.98 | 2.09 µM and 0.877 µM | 7.86 µM and 2.93 µM |  |  |  | 
CC(=O)[O-].[Mn+3].[O-]c1ccccc1C=NCCNCCN=Cc1ccccc1[O-] | > 100 | > 100 µM | > 100 µM | > 100 µM | > 100 µM |  | > 100 µM |  |  | > 100 | > 100 | > 100 |  |  |  |  | > 100 | > 100 | > 100 | 
CN1CCc2c1nc(-c1ccc(Cl)cc1)c1c2N(C)CC1 | > 100 | 25.7 µM | 32.5 µM | 67.7 µM | 47.4 µM | 72.3 | 22.5 µM |  |  |  |  |  |  |  |  |  |  |  |  | 
Cc1c(NC(=S)NC(=O)c2ccc([N+](=O)[O-])cc2)c(=O)n(-c2ccccc2)n1C | > 100 | > 100 µM | > 100 µM | > 100 µM | > 100 µM | > 100 | > 100 µM |  |  |  |  |  |  |  |  |  |  |  |  | 
COC(=O)CC(NC(=O)OCc1ccccc1)C(C(=O)OCc1ccccc1)C(C)(OC)OC (configuration not stated) |  | 42.3 µM | 68.7 µM | 64 µM | 90.9 µM | > 100 | 52.7 µM |  |  |  |  |  |  |  |  |  |  |  |  | 
CC(C)Cc1ccc(C(C)CC2=CCC(CN(C)C)C2=O)cc1 (configuration not stated) | 14.7 | 23 µM | 30.1 µM | 29.5 µM | 4.47 µM | 21.2 | 9.84 µM |  | 22.5 |  |  |  |  | 38.9 |  | 2.78 µM |  |  |  | 
COc1ccc(C(=O)C(CC2C(=O)NC(=O)NC2=O)c2ccc(OC)cc2)cc1 (configuration not stated) | > 100 | > 100 µM | > 100 µM | > 100 µM | > 100 µM | > 100 | > 100 µM |  |  |  |  |  |  |  |  |  |  |  |  | 
C[C@]12CC[C@H](O)CC1=CC[C@@H]1C2CC[C@]2(C)Nc3c(cnn3-c3ccccc3)CC12 (some centres not stated) | 67.7 | 17.4 µM | 25.3 µM | 9.12 µM | 7 µM | 5.8 |  |  |  |  |  |  |  |  |  |  |  |  |  | 
CCOC(=O)N1CCc2cc(OC)c(OC)cc2/C1=C\c1ccc(OC)c(OC)c1 | > 100 | 63.4 µM | 69.5 µM | 79.3 µM | 53.1 µM | 65.4 | 40.3 µM |  |  |  |  |  |  |  |  |  |  |  |  | 
Cc1cc(N(CCC#N)CCC#N)ccc1N=Nc1ccc(Br)cc1 | > 65.8 | > 87.2 µM | > 57.6 µM |  | > 100 µM | > 100 | > 47.1 µM |  |  |  |  |  |  |  |  |  |  |  |  | 
Cc1ccc(S(=O)(=O)c2ccccc2[N+](=O)[O-])cc1 | > 100 | > 100 µM | > 100 µM | > 100 µM | > 100 µM | > 100 |  |  |  |  |  |  |  |  |  |  |  |  |  | 
CC(C)CCCC(C)[C@H]1CCC2[C@@H]3CCC4Nc5c(cnn5-c5ccccc5)C[C@]4(C)C3CC[C@@]21C (some centres not stated) | > 100 | 40.4 µM | 50.4 µM | 25.7 µM | > 100 µM | > 100 |  |  |  |  |  |  |  |  |  |  |  |  |  | 
COC(=O)c1c2c(cc3c1CC1(Cc4cc5c(c(C(C)=O)c4C1)CCC5)C3)CCC2 (configuration not stated) | > 100 | > 100 µM | > 100 µM | 74.2 µM | 86.4 µM |  | > 100 µM |  |  |  |  |  |  |  |  |  |  |  |  | 
O=S(=O)(NCn1ccc2ccccc21)c1ccccc1 | > 100 | > 100 µM | > 100 µM | > 100 µM | 41 µM | > 100 | > 100 µM |  |  |  |  |  |  |  |  |  |  |  |  | 
CC(=O)OCC(=O)[C@@]12OC(C)(C)O[C@@H]1C[C@H]1[C@@H]3CC(C=O)=C4C=C(OCCCl)CC[C@]4(C)[C@@]3(F)[C@@H](O)C[C@@]12C | 68.8 | > 100 µM | > 100 µM |  | 97.1 µM | 38.2 | > 100 µM |  |  |  |  |  |  |  |  |  |  |  |  | 

SMILES | TGI (SNB-78 CNS) [µM] | TGI (UACC-62 melanoma) | TGI (UO-31 renal) | TGI (SNB-75 CNS) | TGI (HL-60(TB) leukemia) | TGI (KM20L2 colon) [µM] | TGI (LOX IMVI melanoma) | GI50 (MDA-MB-231 breast) [µM] | TGI (MDA-MB-231 breast) [µM] | GI50 (UACC-62 melanoma) [µM] | GI50 (UO-31 renal) [µM] | GI50 (SNB-75 CNS) [µM] | GI50 (BT-549 breast) [µM] | TGI (BT-549 breast) [µM] | GI50 (MCF7 breast) | TGI (MCF7 breast) | GI50 (SNB-78 CNS) [µM] | GI50 (HL-60(TB) leukemia) [µM] | GI50 (LOX IMVI melanoma) [µM] | GI50 (KM20L2 colon) [µM]
CC(=O)O[C@]1(C)OC(=O)[C@@H](CC(C)C)N1[N+](=O)[O-] | > 100 | > 100 µM | > 100 µM | > 100 µM | > 100 µM | > 100 | > 100 µM |  |  |  |  |  |  |  |  |  |  |  |  | 
NNC(=O)C(=O)N/N=C1\CCC(=O)CC1C(=O)CCC(=O)Nc1ccc(Cl)cc1 (configuration not stated) | > 100 | > 100 µM | > 100 µM | > 100 µM | > 100 µM | > 100 | > 100 µM |  |  |  |  |  |  |  |  |  |  |  |  | 
CCOC(=O)CCn1ncc(Cl)c(Cl)c1=O | 22.1 | 19.2 µM | 29.3 µM | 29.6 µM | 6.49 µM | 31.4 | 25.7 µM |  |  |  |  |  |  |  |  |  |  |  |  | 
C[Si](C)(C)/C=C\CCO | > 100 | > 100 µM | > 100 µM | > 100 µM | > 100 µM | > 100 | > 100 µM |  |  |  |  |  |  |  |  |  |  |  |  | 
C=CCO/N=C(\OC(=O)c1ccc([N+](=O)[O-])cc1)c1ccccc1 | > 100 | > 100 µM | > 100 µM | > 100 µM |  |  |  |  |  |  |  |  |  |  |  |  |  |  |  | 
O=C1/C(=C/c2ccccc2)CN(C(=O)CCN2CCCC2)C/C1=C\c1ccccc1 | 16.5 | 3.45 µM | 7.73 µM | 13.5 µM | 1.18 µM | 3.91 | 1.85 µM |  | 3.78 |  |  |  |  | 3.77 |  | 2.63 µM |  |  |  | 
O=C1CC(c2[nH]nc3ccccc23)C(=O)N1c1ccccc1 (configuration not stated) | > 100 | > 100 µM | > 100 µM | > 100 µM | 70.4 µM | > 100 | > 100 µM |  | > 100 |  |  |  |  | > 100 |  | > 100 µM |  |  |  | 
N.N.N.N.N.O=[N+]([O-])[O-].[Co+3].[O-][Cl+3]([O-])([O-])[O-] | > 100 | > 100 µM | > 100 µM | > 100 µM | > 100 µM | > 100 | > 100 µM |  |  | > 100 | > 100 | 29.6 |  |  |  |  | > 100 | > 100 | > 100 | > 100
C#Cc1c(C)c(/C=C/C(C)=C/C(=O)OC)n(C)c1C | > 100 | > 100 µM | > 100 µM |  | 79.4 µM | > 100 | > 100 µM |  |  |  |  |  |  |  |  |  |  |  |  | 
CN(C)c1nc2ccccc2c2c1c1c(n2Cc2ccccc2)-c2ccccc2C1=O |  | > 100 µM | > 100 µM | > 100 µM | > 100 µM |  | > 100 µM | > 100 | > 100 | > 100 | > 100 | 54.2 | > 100 | > 100 | 71.4 µM | > 100 µM |  | 91.6 | > 100 | 
Cc1c2c(c(C)c3c4c(oc13)CCCC4)C=NCC2 |  | 29.6 µM | 25.8 µM | 32.4 µM | 43.4 µM |  | 38.3 µM |  | 32.9 |  |  |  |  | 33.7 |  | 30.4 µM |  |  |  | 
COc1ccc(CCc2cc(OC)cc(OC)c2)cc1 | > 100 | > 100 µM | > 100 µM | > 81.3 µM | > 84.5 µM | > 58 | > 100 µM |  |  |  |  |  |  |  |  |  |  |  |  | 
c1ccc(-c2nc(N3CCOCC3)c3c4c(sc3n2)CCCCCC4)nc1 |  | 14.3 µM | 10.3 µM | 20.8 µM | 22.8 µM |  | 20.9 µM | 7.43 | 25.9 | 3.44 | 1.17 | 7.1 | 4.38 | 16.7 | 3.04 µM | 12.8 µM |  | 4.49 | 5.24 | 
O=C(O)CCNCCCCNCCC(=O)O |  | > 100 µM |  | > 100 µM | > 100 µM | > 100 | > 100 µM |  |  |  |  |  |  |  |  |  |  |  |  | 
COc1ccc(C(=O)NNc2nc(Cl)nc(N3CCN(C(c4ccccc4)c4ccccc4)CC3)n2)cc1 |  | 3.54 µM | 18.5 µM | 3.49 µM | 10.5 µM |  | 3.05 µM | 1.94 | 3.68 | 1.82 | 3.2 | 1.65 | 1.74 | 3.47 | > 100 µM | > 100 µM |  | 2.54 | 1.63 | 

From PubChem BioAssay (NCI)
